Assay results: paper PMC2713788 (Experimental eye research, 2009)
No end group written: not given here.

Columns and labels:
[1] = in vitro; assay type: in vitro ADME; settings: human, cells or culture medium, bradykinin remaining in media
[2] = in vitro; assay type: in vitro ADME; settings: human, cells or culture medium, bradykinin present in media

**Q.** What does the source list for RPPGFSPFR [bradykinin]?
**A.** remaining at 0.5 h, 500 pg/ml [1]: 51 ± 5%; remaining at 1 h, 500 pg/ml [1]: 15 ± 3%; remaining at 1.5 h, 500 pg/ml [1]: 9 ± 3%; remaining at 0.5 h, 500 pg/ml [2]: 73 ± 3%; remaining at 1 h, 500 pg/ml [2]: 52 ± 3%
